Data taken from the supplement of paper PMC10627819.

Assays:
Assay in all cases: Bliss interaction score (quartile over a dose matrix) (fitness difference); higher = more antagonism (negative = synergy)
[1] = system: S. aureus DSM 20231
How it was run: (§1)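 Combination data were used to infer fitness under each single drug. Fitness is the OD595 at entry into stationary phase divided by the robust mean of the plate's no-drug wells, with a cap of 1. The Bliss score is the observed minus the expected product fitness, summarised by quartiles over technical, biological and donor/recipient replicates.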

[2] = system: S. pneumoniae D39V
How it was run: as §1

[3] = system: B. subtilis 168
How it was run: as §1

[4] = system: S. aureus Newman
How it was run: as §1
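Also: first quartile when negative (synergy) and third quartile when positive (antagonism).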

Row | SMILES | Bliss interaction score [1] | Bliss interaction score [2] | Bliss interaction score [3] | Bliss interaction score [4] | Bliss interaction score ([1]; main component drawn) | Bliss interaction score ([2]; main component drawn) | Bliss interaction score ([3]; main component drawn) | Bliss interaction score ([4]; main component drawn)
1 | CO[C@@]12[C@H](COC(N)=O)C3=C(C(=O)C(C)=C(N)C3=O)N1C[C@@H]1N[C@@H]12 [MitomycinC] + Cc1onc(-c2ccccc2)c1C(=O)N[C@@H]1C(=O)N2[C@@H]1SC(C)(C)[C@@H]2C(=O)O [Oxacillin] | 0.0499 | 0.0896 | -0.0799 | 0.046 | – | – | – | –
2 | CO[C@@]12[C@H](COC(N)=O)C3=C(C(=O)C(C)=C(N)C3=O)N1C[C@@H]1N[C@@H]12 [MitomycinC] + CN[C@@H]1[C@H](O[C@H]2[C@H](O[C@H]3[C@H](O)[C@@H](O)[C@H](N=C(N)N)[C@@H](O)[C@@H]3N=C(N)N)O[C@@H](C)[C@]2(O)C=O)O[C@@H](CO)[C@H](O)[C@H]1O [Streptomycin] | -0.117 | -0.072 | -0.21 | -0.078 | – | – | – | –
3 | CC[C@H](C)[C@H](N)C1=N[C@H](C(=O)N[C@@H](CC(C)C)C(=O)N[C@H](CCC(=O)O)C(=O)N[C@H](C(=O)N[C@H]2CCCCNC(=O)[C@H](CC(N)=O)NC(=O)[C@@H](CC(=O)O)NC(=O)[C@H](Cc3cnc[nH]3)NC(=O)[C@@H](Cc3ccccc3)NC(=O)[C@H]([C@@H](C)CC)NC(=O)[C@@H](CCCN)NC2=O)[C@@H](C)CC)CS1 [Bacitracin] + Clc1ccc(COC(Cn2ccnc2)c2ccc(Cl)cc2Cl)c(Cl)c1 [Miconazole] | – | – | – | – | -0.0238 | 0.113 | -0.0878 | -0.0691
4 | CO[C@@]12[C@H](COC(N)=O)C3=C(C(=O)C(C)=C(N)C3=O)N1C[C@@H]1N[C@@H]12 [MitomycinC] + CCC(C)C1C(=O)NC(=C)C(=O)NC(C(=O)NC(CSCC(C(=O)N1)NC(=O)/C(=C/C)/NC(=O)C(C(C)CC)N)C(=O)NC2C(SCC(NC(=O)CNC(=O)C3CCCN3C2=O)C(=O)NC(CCCCN)C(=O)NC4C(SCC(NC(=O)CNC(=O)C(NC(=O)C(NC(=O)C(NC(=O)CNC4=O)C)CC(C)C)CCSC)C(=O)NC(CC(=O)N)C(=O)NC(CCSC)C(=O)NC(CCCCN)C(=O)NC5C(SCC6C(=O)NC(C(=O)NC(CSC(C(C(=O)N6)NC(=O)C(NC5=O)C)C)C(=O)NC(CO)C(=O)NC(C(C)CC)C(=O)NC(CC7=CN=CN7)C(=O)NC(C(C)C)C(=O)NC(=C)C(=O)NC(CCCCN)C(=O)O)CC8=CN=CN8)C)C)C)CC(C)C [Nisin] | – | – | – | – | -0.242 | -0.0423 | -0.0279 | -0.0537
5 | CC[C@H](C)[C@H](N)C1=N[C@H](C(=O)N[C@@H](CC(C)C)C(=O)N[C@H](CCC(=O)O)C(=O)N[C@H](C(=O)N[C@H]2CCCCNC(=O)[C@H](CC(N)=O)NC(=O)[C@@H](CC(=O)O)NC(=O)[C@H](Cc3cnc[nH]3)NC(=O)[C@@H](Cc3ccccc3)NC(=O)[C@H]([C@@H](C)CC)NC(=O)[C@@H](CCCN)NC2=O)[C@@H](C)CC)CS1 [Bacitracin] + CC[C@H]1OC(=O)[C@H](C)[C@@H](O[C@H]2C[C@@](C)(OC)[C@@H](O)[C@H](C)O2)[C@H](C)[C@@H](O[C@@H]2O[C@H](C)C[C@H](N(C)C)[C@H]2O)[C@](C)(OC)C[C@@H](C)C(=O)[C@H](C)[C@@H](O)[C@]1(C)O [Clarithromycin] | – | – | – | – | -0.0475 | -0.0454 | 0.0539 | -0.0869
6 | CC[C@H]1OC(=O)[C@H](C)[C@@H](O[C@H]2C[C@@](C)(OC)[C@@H](O)[C@H](C)O2)[C@H](C)[C@@H](O[C@@H]2O[C@H](C)C[C@H](N(C)C)[C@H]2O)[C@](C)(O)C[C@@H](C)C(=O)[C@H](C)[C@@H](O)[C@]1(C)O [Erythromycin] + CO[C@@]12[C@H](COC(N)=O)C3=C(C(=O)C(C)=C(N)C3=O)N1C[C@@H]1N[C@@H]12 [MitomycinC] | -0.048 | -0.0897 | 0.0799 | 0.0538 | – | – | – | –
7 | CC[C@H]1OC(=O)[C@H](C)[C@@H](O[C@H]2C[C@@](C)(OC)[C@@H](O)[C@H](C)O2)[C@H](C)[C@@H](O[C@@H]2O[C@H](C)C[C@H](N(C)C)[C@H]2O)[C@](C)(O)C[C@@H](C)C(=O)[C@H](C)[C@@H](O)[C@]1(C)O [Erythromycin] + O=C1CN(/N=C/c2ccc([N+](=O)[O-])o2)C(=O)N1 [Nitrofurantoin] | -0.0518 | -0.197 | -0.0393 | -0.0513 | – | – | – | –
8 | CC[C@H]1OC(=O)[C@H](C)[C@@H](O[C@H]2C[C@@](C)(OC)[C@@H](O)[C@H](C)O2)[C@H](C)[C@@H](O[C@@H]2O[C@H](C)C[C@H](N(C)C)[C@H]2O)[C@](C)(O)C[C@@H](C)C(=O)[C@H](C)[C@@H](O)[C@]1(C)O [Erythromycin] + CC(=O)NC[C@H]1CN(c2ccc(N3CCOCC3)c(F)c2)C(=O)O1 [Linezolid] | -0.018 | 0.068 | -0.0534 | -0.0521 | – | – | – | –
9 | CN[C@H](CC(C)C)C(=O)N[C@H]1C(=O)N[C@@H](CC(N)=O)C(=O)N[C@H]2C(=O)N[C@H]3C(=O)N[C@H](C(=O)N[C@H](C(=O)O)c4cc(O)cc(O)c4-c4cc3ccc4O)[C@H](O[C@H]3C[C@](C)(N)[C@@H](O)[C@H](C)O3)c3ccc(c(Cl)c3)Oc3cc2cc(c3O[C@@H]2O[C@H](CO)[C@@H](O)[C@H](O)[C@H]2O[C@H]2C[C@](C)(NCc3ccc(-c4ccc(Cl)cc4)cc3)[C@@H](O)[C@H](C)O2)Oc2ccc(cc2Cl)[C@H]1O [Oritavancin] + CN(C)c1cc(NC(=O)CNC(C)(C)C)c(O)c2c1C[C@H]1C[C@H]3[C@H](N(C)C)C(O)=C(C(N)=O)C(=O)[C@@]3(O)C(O)=C1C2=O [Tigecycline] | -0.0305 | 0.0458 | -0.0328 | -0.0634 | – | – | – | –
